These results are taken from publication PMC12631437, “Evaluation of the Activity of 4‑Quinolones against Multi-Life Stages of Plasmodium spp” (ACS Omega, 2025).

The test system of data set [1] is late-stage gametocytes (IV and V) of P. falciparum NF54. The experiment in a line: Late-stage gametocyte bioluminescence assay, luciferase-expressing NF54. The class given is cell-based, Plasmodium falciparum. As to conditions: for Pf gametocytes inhibition: 1 μM; for inhibition at 20 µM: Plasmodium falciparum, NF54, 48 h, read-out: Pf gametocytes Inhibition (%). Here is the method:
For the in vitro culture of sexual stages of P. falciparum NF54 Luminescent strain, the Tripathi protocol was followed.
Parasite asexual stages were synchronized, and ring-stage parasites were incubated with a parasite-conditioned medium to induce stress and trigger gametocyte induction. After sexually committed parasites invaded new erythrocytes, N-acetylglucosamine was added to prevent further invasion and clear residual asexual parasites.
When a predominance of late stage (IV and V) gametocytes was identified and counted together, , the MACS magnetic system was used for gametocyte enrichment, as previously described. ,
The column content was eluted with RPMI medium into a 15 mL Falcon tube until translucent medium appeared, yielding ∼ 10 mL of eluate. The sample was centrifuged at 1500 rpm for 5 min at 37 °C, the supernatant discarded, and the pellet washed with preheated RPMI medium containing albumax. A 1 μL pellet sample was used to prepare a Giemsa-stained smear for gametocytaemia determination by counting 2000 cells. The gametocytemia for each assay were 71%, 64% and 31%. The remaining pellet was adjusted to 1 mL with RPMI medium containing 10% human serum at 37 °C. Total cell counts were performed using a Neubauer chamber with a 10X diluted sample.
Each well contained 200,000 gametocytes in 150 μL without erythrocytes. After 48 h of incubation, a luciferase kit (Promega) was used to reveal the assay. Eighty microliters of supernatant were discarded, and the pellet was homogenized in the remaining content. Forty microliters of the sample were transferred to a clear 96-well plate containing lysis solution (1X), gently mixed, and moved to a white-bottomed 96-well plate. Luciferase (40 μL) was added, and luminescence was measured using a microplate reader with a 10-s integration time.

A further data set concerns Huh-7 cells. The experiment in a line: Alamar Blue cell confluency (cytotoxicity) in Huh-7 cells. It counts as cell-based. Here is the method:
For compound dilution, a medium containing 1:1000 gentamicin (G) and 1:300 fungizone (F) was used. Cells were seeded at 1 × 10^4 cells/well in 96-well plates and incubated at 37 °C with 5% CO2. After 24 h, compounds were diluted in RPMI+F+G, and after removal of the culture medium, added to the cells in triplicate. […] Following incubation for 1 h at 37 °C, 5% CO2, the cells were infected with luciferase-expressing P. berghei sporozoites (4,000 parasites per well) freshly extracted from the salivary glands of infected mosquitoes reared at the GIMM insectarium. The viability of Huh-7 cells exposed to the compounds was assessed 46 h later by the AlamarBlue assay (Invitrogen, UK) measurement, and parasite burden was measured 48 h after sporozoite addition using a bioluminescence assay (Biotium). IC50 values were calculated using GraphPad Prism through nonlinear regression analysis of normalized dose–response curves.
On the first day of the assay, the compounds were diluted at 10 and 1 μM in cRPMI medium supplemented with fungizone. and gentamicin. The culture medium of Huh-7 cells was removed and replaced with compound dilutions in triplicate. As a control, a DMSO dilution mimicking the highest compound concentration used was included. The cells were incubated for 1 h at 37 °C in a 5% CO2 atmosphere.
On the second day of the assay, compound toxicity was assessed by measuring cell confluency using the Alamar Blue/CellTiter Blue reagent. First, reagent aliquots stored at −20 °C were thawed and diluted at a 1:20 ratio in cRPMI. The culture medium was removed and replaced with 80 μL of the solution per well, followed by incubation at 37 °C and 5% CO2 for 1 h and 30 min. Fluorescence was measured using a plate reader with the Tecan i-Control software.

Data set [2] relates to P. vivax oocysts and sporozoites in Anopheles darlingi. The data set can be described thus: Direct membrane feeding assay (DMFA), P. vivax gametocytes, A. darlingi mosquitoes. The class given is in vivo, Plasmodium vivax. To be noted: for reduction of the density of sporozoites per mosquito: 14 days after feeding; for reduction in the oocyst density per mosquito midgut: day 7. As for the experimental part: Participants were recruited from patients diagnosed with P. vivax malaria via Giemsa-stained blood smears at CEPEM in Porto Velho, Rondônia, Brazil (#28176720.9.0000.0011). Criteria included: P. vivax parasitemia >2000 parasites/μL, age 18–85, no severe malaria, no concomitant diseases, nonpregnant, and consent to study procedures. Approximately 10 mL of venous blood was collected into heparin-coated vials, maintained at 37 °C, and transported to PIVEM for DMFA. Malaria treatment followed Brazilian Ministry of Health guidelines and was unaffected by study participation.
Anopheles darlingi mosquitoes are maintained in the PIVEM insectary at Fiocruz Rondônia since 2018. Mosquitoes were raised at a temperature of 26 °C ± 1 °C and a relative humidity of 70 ± 10%, being fed a 15% honey solution.
Before the DMFA, female mosquitoes were starved of sucrose overnight. Six P. vivax isolates were used, and 40–100 mosquitoes per group were fed P. vivax-infected blood for 30 min using a Hemotek membrane feeder at 37 °C. Unfed mosquitoes were removed, and engorged ones were maintained for sporogony, receiving a 15% honey solution refreshed every 2 days. Midguts were dissected on day 7 and salivary glands on day 14 postblood feeding, to assess midgut oocyst load and salivary gland sporozoite load, respectively.
Mosquitoes were anesthetized on ice, immersed in 70% ethanol, and dissected in PBS. Midguts were stained with 0.2% mercurochrome and examined microscopically for oocysts. Salivary glands were pooled (5 mosquitoes per sample), and homogenized in 15 μL RPMI, and sporozoites were counted using a Neubauer chamber.

For data set [3], the system named is Plasmodium falciparum 3D7 sensitive strain. The experiment in a line: SYBR Green growth assay, asexual blood stages, 3D7 sensitive strain. The class given is cell-based. As for the experimental part:
Parasite strains SB1-A6, 7G8, V1/S, and HB3 were acquired from BEI-MR4, while the ATQ R1 strain, carrying a V259L gene mutation, was generated in-house. […] Parasitemia was monitored using Giemsa-stained blood smears.
Bioassays were conducted with synchronized ring-stage parasites using sorbitol synchronization. Antimalarial compounds were evaluated in 96-well plates, and parasite growth was assessed using a SYBR Green-based fluorescence assay The assays were conducted when the parasite quantity reached at least 70% of the ring stage. Compounds were initially added at specific concentrations in the first wells, followed by serial dilution (1:2) ranging from 20 μM to 0.009 μM. Subsequently, a solution containing parasites in RPMI medium at a hematocrit of 2% was added to each well, and the parasites were then incubated for 72 h.
The IC50 values were determined using concentration–response curves generated in GraphPad 8 software. Additionally, the resistance index was calculated by comparing IC50 values obtained for the sensitive 3D7 strain with those of the resistant strains.

Where [4] appears, read: 20 μM, 48 h, late-stage (IV and V) gametocytes.
Setting [5] is: Plasmodium falciparum, 3D7, 72 h, asexual blood stages, 3D7 sensitive strain, 72 h, read-out: IC50.
Setting [6] is: asexual blood stages, 3D7 sensitive strain, 72 h, read-out: IC50.

Like-named read-outs stand apart in the source and are kept apart here.

What is called inhibition is the share of the control response that was lost under treatment. For orientation: IC50 means the point on the concentration scale where inhibition reaches its midpoint. In the case of `CCCCCCOc1ccc(-c2cc(=O)c3ccccc3[nH]2)cc1` [compound 6, 2-(4-(Hexyloxy)-phenyl)-quinolin-4(1H)-one], in data set [1], the Pf gametocytes inhibition entry is “no activity”. Also, the “Pf gametocytes Inhibition (%)” value in data set [1] (setting [4]) is listed as 68 ± 25%. Besides, the inhibition at 20 µM in data set [1] (setting [4]) was 64%. For the same compound, the Confluency % in the data set with Huh-7 cells (1 μM) is 105 ± 3%; with Huh-7 cells (10 μM) it was 102 ± 11%. For the same compound, the “reduction of the density of sporozoites per mosquito” value in data set [2] (2 μM) is on record as 31%; in data set [2] (10 μM), 10%. For the same compound, the entries for the “reduction in the oocyst density per mosquito midgut” value in data set [2] (2 μM) and in data set [2] (10 μM) were 29% and 53%, respectively. For the same compound, the IC50 in data set [3] (setting [5]) amounted to 560 ± 70 nM; in data set [3] (setting [6]) it was 500 nM.

For the compound `CCCCCCCCCCCc1cc(=O)c2ccccc2[nH]1` [compound 1, 2-Undecilquinolin-4(1H)-one], the Pf gametocytes inhibition entry in data set [1] was “no activity”. Besides, the inhibition at 20 µM in data set [1] (setting [4]) turned out to be 44 ± 4%. Moreover, the Confluency % amounted to 97 ± 6% in the data set with Huh-7 cells (1 μM) and 79 ± 2% in the data set on Huh-7 cells (10 μM). In addition, the results for the “reduction of infection prevalence” value in data set [2] (2 μM) and in data set [2] (10 μM) were 31% and 71%, respectively. Also, the “reduction of the density of sporozoites per mosquito” value in data set [2] (2 μM) worked out at 39%. In addition, the “reduction in the oocyst density per mosquito midgut” value is recorded as 74% in data set [2] (2 μM) and 95% in data set [2] (10 μM). The IC50 amounted to 270 nM in data set [3] (Plasmodium falciparum, 3D7, 3D7, strain assigned by order of panels, read-out: IC50 (Figure S1)); 210 ± 40 nM in data set [3] (setting [5]); 200 ± 100 nM in data set [3] (setting [6]).
